Test results as given in article PMC10065791 (eLife, 2023).

How the values were obtained:
I84V mutant protease = target: T1, I84V mutant protease (Human immunodeficiency virus type 1 group M subtype B, UniProt P12497, I572V/Q495K); test: Ki assay (FRET enzyme inhibition), I84V protease; format: biochemical, HIV-1; details: I84V drug-resistant protease variant
T1 construct: the gene encoding the desired HIV-1 protease was subcloned into the heat-inducible pXC35 expression vector; made in house
Experimental: (§1) The highly mutated, resistant, protease variant genes were purchased on a pET11a plasmid with codon optimization for protein expression in Escherichia coli (Genewiz). A Q7K mutation was included to prevent autoproteolysis ([Rosé et al., 1993]). The expression, isolation, and purification of WT and mutant HIV-1 proteases used for enzymatic assays were carried out as previously described ([Henes et al., 2019]; [King et al., 2002]; [Özen et al., 2014]). Briefly, the gene encoding the desired HIV-1 protease was subcloned into the heat-inducible pXC35 expression vector (ATCC) and transformed into E. coli TAP-106 cells. Cells grown in 6 l of Terrific Broth were lysed with a cell disruptor twice, and the protein was purified from inclusion bodies ([Hui et al., 1993]). Inclusion bodies, isolated as a pellet after centrifugation, were dissolved in 50% acetic acid followed by another round of centrifugation at 19,000 rpm for 30 min to remove insoluble impurities. Size-exclusion chromatography was carried out on a 2.1 l Sephadex G-75 Superfine (Sigma Chemical) column equilibrated with 50% acetic acid to separate high molecular weight proteins from the desired protease. Pure fractions of HIV-1 protease were refolded using a tenfold dilution of refolding buffer (0.05 M sodium acetate at pH 5.5, 5% ethylene glycol, 10% glycerol, and 5 µM DTT). Folded protein was concentrated to 0.5–3 mg/ml and stored. The stored protease was used in KM and Ki assays.
(§2) Enzyme inhibition constants (Ki values) were determined as previously described ([Henes et al., 2019]; [Lockbaum et al., 2019]; [Matayoshi et al., 1990]; [Windsor and Raines, 2015]). Briefly, in a 96-well plate, inhibitors were serially diluted down from […] depending on protease resistance. All samples were incubated with 5 nM protein for 1 hr. A 10-amino acid substrate containing an optimized protease cleavage site ([Windsor and Raines, 2015]), purchased from Bachem, with an EDANS/DABCYL FRET pair was dissolved in 4% DMSO at 120 µM. Using a PerkinElmer Envision plate reader, 5 µl of the 120 µM substrate were added to the 96-well plate to a final concentration of 10 µM. […] Data was analyzed with Prism7.

[1] = target: T2, I50V/A71V mutant protease (Human immunodeficiency virus type 1 group M subtype B, UniProt P12497, A559V/I538V/Q495K); test: Ki assay (FRET enzyme inhibition), I50V/A71V protease; format: biochemical, HIV-1; details: I50V/A71V drug-resistant protease variant
T2 construct: the gene encoding the desired HIV-1 protease was subcloned into the heat-inducible pXC35 expression vector; made in house
Experimental: as §1, §2

wild-type NL4-3 protease = target: T3, wild-type NL4-3 protease (Human immunodeficiency virus type 1 group M subtype B, UniProt P12497, Q495K); test: Ki assay (FRET enzyme inhibition), wild-type protease; format: biochemical, HIV-1; details: limit of detection 5 pM, read-out: Ki WT
T3 construct: the gene encoding the desired HIV-1 protease was subcloned into the heat-inducible pXC35 expression vector; made in house
Experimental: as §1, §2

[2] = tested on: virus pool selected to 5000 nM inhibitor; test: TZM infection assay, inhibitor-selected resistant virus pools; format: cell-based, HIV-1; details: Human immunodeficiency virus 1, read-out: EC50 Viral culture (5000 nM); final virus pool selected with the same inhibitor to 5000 nM; highest level recorded 100 µM
Experimental: In addition to the sequence of the terminally selected virus, we validated that selection occurred over the entire course of the selection protocol. […] In comparing the number of mutations present in cultures using the I84V versus the I50V pathway, we noted that on average there were more mutations in the I50V viruses at the intermediate drug concentration compared to the I84V viruses (100 nM, p=0.03), and this trend continued at the higher drug concentration.
An aliquot of 3 × 10^6 CEMx174 cells was incubated at 37°C for 2–3 hr with 250 µl of a virus stock generated from the HIV-1 infectious molecular clone pNL4-3. The culture volume was then brought to 10 ml with RPMI medium. […] After 48 hr and every 48 hr after, the cells were pelleted by centrifugation and 10 ml of fresh medium and inhibitors were added. When the culture had undergone extensive cytopathic effect (CPE) indicative of viral replication, the supernatant medium and the cells were harvested separately and stored at –80°C. The virus-containing supernatant was used to start the next round of infection, and after several rounds at the initial concentration, the inhibitor concentration was increased 1.5-fold at each subsequent round of virus passage.
PI dilutions were prepared by taking 10 µM stocked and performing a fivefold serial dilution using RPMI media (final drug concentration is […]). One dilution of drug was added to each well of a 24-well plate and repeated so each virus would have a full set of dilutions. Viruses for the assay were made by seeding 3 × 10^6 CEM cells in a 24-well plate and incubating with 250 µl of virus at 37°C for 2–3 hr before bringing the culture to 10 ml with RPMI media. After 48 hr, the medium was changed and repeated every 48 hr after until the culture had undergone CPE. Infected CEM cells were collected and diluted so that 1 ml of cells could be plated in each well containing a unique drug dilution. Then 24 hr later the virus supernatant was collected from each well followed by filtering through a […] then placed in –80°C. Viruses were thawed and added to 96-well plates in triplicate. TZM-bl cells were collected and diluted to a concentration of 2 × 10^5 cells/ml, 100 µl were added on top of the pre-plated viruses. Plates were kept in 37°C, 5% CO2 in an incubator for 48 hr. After 48 hr, the cells in the plates were lysed by removing the medium, washing two times with 100 µl PBS, and then lysed with 1× lysis buffer (made from 5× Promega Firefly Lysis Buffer). Plates were frozen for at least 24 hr and then thawed for 2 hr before analyzing with Promega Firefly Luciferase Kit on a luminometer. Data was analyzed with Prism 7 to fit sigmoidal dose–response curves.

| SMILES | Ki (I84V mutant protease) [nM] | Ki [1] [nM] | Ki (wild-type NL4-3 protease) [nM] | EC50 [2] [nM] |
| --- | --- | --- | --- | --- |
| CC[C@H](C)CN(C[C@@H](O)[C@H](Cc1ccccc1)NC(=O)O[C@H]1CO[C@H]2OCC[C@H]21)S(=O)(=O)c1ccc(CO)cc1 [UMASS-3] | 0.0099 ± 0.0027 | 0.0799 ± 0.0059 | < 0.005 | 14800 |
| CC[C@H](C)CN(C[C@@H](O)[C@H](Cc1ccccc1)NC(=O)O[C@H]1CO[C@H]2OCC[C@H]21)S(=O)(=O)c1ccc2c(c1)OCO2 [UMASS-4] | 0.0105 ± 0.0018 | 0.0329 ± 0.003 | < 0.005 | 13700 |
| CC[C@H](C)CN(C[C@@H](O)[C@H](Cc1ccccc1)NC(=O)O[C@H]1CO[C@H]2OCC[C@H]21)S(=O)(=O)c1ccc2ncsc2c1 [UMASS-5] | 0.007 ± 0.0017 | 0.0078 ± 0.0009 | < 0.005 | > 100000 |
| CCC(CC)CN(C[C@@H](O)[C@H](Cc1ccccc1)NC(=O)O[C@H]1CO[C@H]2OCC[C@H]21)S(=O)(=O)c1ccc(OC)cc1 [UMASS-7] | 0.0121 ± 0.0045 | 0.0182 ± 0.003 | < 0.005 | – |
| CCC(CC)CN(C[C@@H](O)[C@H](Cc1ccccc1)NC(=O)O[C@H]1CO[C@H]2OCC[C@H]21)S(=O)(=O)c1ccc2c(c1)OCO2 [UMASS-9] | 0.0076 ± 0.0016 | 0.0423 ± 0.0026 | < 0.005 | > 100000 |
